Reference: ChEMBL document CHEMBL4680155, “One-pot synthesis and molecular docking of some new spiropyranindol-2-one derivatives as immunomodulatory agents and in vitro antimicrobial potential with DNA gyrase inhibitor” (Eur J Med Chem, 2020)
≈ marks a conversion by molar mass, not a printed value.

What was measured:
[1] = tested on: Enterococcus faecalis; test: Antibacterial activity against Enterococcus faecalis ATCC 29212 assessed as diameter of inhibition zone at 0.5 mg/ml incubated for 24 hrs by agar diffusion method; type: functional; details: read-out: DIZ
[2] = tested on: Enterococcus faecalis; test: Antibacterial activity against Enterococcus faecalis ATCC 29212 assessed as reduction in bacterial growth incubated for 1 day by paper disk diffusion method; type: functional; details: ATCC 29212, 24 h
[3] = tested on: Candida albicans; test: Antifungal activity against Candida albicans ATCC 10231 assessed as reduction in bacterial growth incubated for 1 day by paper disk diffusion method; type: functional; details: ATCC 10231, 24 h
[4] = tested on: Pseudomonas aeruginosa; test: Antibacterial activity against multidrug resistant Pseudomonas aeruginosa ATCC BAA-2111 assessed as reduction in bacterial growth incubated for 1 day by paper disk diffusion method; type: functional; details: ATCC BAA-2111, 24 h
[5] = tested on: Staphylococcus aureus; test: Antibacterial activity against Staphylococcus aureus ATCC 29213 assessed as diameter of inhibition zone at 0.5 mg/ml incubated for 24 hrs by agar diffusion method; type: functional; details: read-out: DIZ
[6] = tested on: Aspergillus brasiliensis; test: Antifungal activity against Aspergillus brasiliensis ATCC 16404 assessed as diameter of inhibition zone at 0.5 mg/ml incubated for 72 hrs by agar diffusion method; type: functional; details: read-out: DIZ
[7] = tested on: Candida albicans; test: Antifungal activity against Candida albicans ATCC 10231 assessed as diameter of inhibition zone at 0.5 mg/ml incubated for 24 hrs by agar diffusion method; type: functional; details: read-out: DIZ
[8] = tested on: Staphylococcus aureus; test: Antibacterial activity against multidrug resistant Staphylococcus aureus ATCC 33591 assessed as diameter of inhibition zone at 0.5 mg/ml incubated for 24 hrs by agar diffusion method; type: functional; details: read-out: DIZ
[9] = tested on: Escherichia coli; test: Bactericidal activity against Escherichia coli ATCC 25922 incubated for 24 hrs followed by transferring to freshly prepared broth medium and measured after 24 hrs by broth microdilution assay; type: functional; details: time 48 hrs
[10] = tested on: Escherichia coli; test: Bactericidal activity against Escherichia coli ATCC BAA-196 incubated for 24 hrs followed by transferring to freshly prepared broth medium and measured after 24 hrs by broth microdilution assay; type: functional; details: time 48 hrs
[11] = tested on: Staphylococcus aureus; test: Bactericidal activity against Staphylococcus aureus ATCC 43300 incubated for 24 hrs followed by transferring to freshly prepared broth medium and measured after 24 hrs by broth microdilution assay; type: functional; details: time 48 hrs
[12] = tested on: Pseudomonas aeruginosa; test: Antibacterial activity against multidrug resistant Pseudomonas aeruginosa ATCC BAA-2111 assessed as diameter of inhibition zone at 0.5 mg/ml incubated for 24 hrs by agar diffusion method; type: functional; details: read-out: DIZ
[13] = tested on: Escherichia coli; test: Antibacterial activity against multidrug resistant Escherichia coli ATCC BAA-196 assessed as diameter of inhibition zone at 0.5 mg/ml incubated for 24 hrs by agar diffusion method; type: functional; details: read-out: DIZ
[14] = tested on: Pseudomonas aeruginosa; test: Bactericidal activity against Pseudomonas aeruginosa ATCC BAA-2111 incubated for 24 hrs followed by transferring to freshly prepared broth medium and measured after 24 hrs by broth microdilution assay; type: functional; details: time 48 hrs
[15] = tested on: Staphylococcus aureus; test: Antibacterial activity against multidrug resistant Staphylococcus aureus ATCC 43300 assessed as diameter of inhibition zone at 0.5 mg/ml incubated for 24 hrs by agar diffusion method; type: functional; details: read-out: DIZ
[16] = tested on: Staphylococcus aureus; test: Antibacterial activity against Staphylococcus aureus ATCC 29213 assessed as reduction in bacterial growth incubated for 1 day by paper disk diffusion method; type: functional; details: ATCC 29213, 24 h
[17] = tested on: Staphylococcus aureus; test: Bactericidal activity against Staphylococcus aureus ATCC 29213 incubated for 24 hrs followed by transferring to freshly prepared broth medium and measured after 24 hrs by broth microdilution assay; type: functional; details: time 48 hrs
[18] = tested on: Escherichia coli; test: Antibacterial activity against multidrug resistant Escherichia coli ATCC BAA-196 assessed as reduction in bacterial growth incubated for 1 day by paper disk diffusion method; type: functional; details: ATCC BAA-196, 24 h
[19] = tested on: Aspergillus brasiliensis; test: Fungicidal activity against Aspergillus brasiliensis ATCC 16404 incubated for 72 hrs followed by transferring to freshly prepared broth medium and measured after 24 hrs by broth microdilution assay; type: functional; details: time 96 hrs
[20] = tested on: Salmonella typhimurium; test: Antibacterial activity against Salmonella typhi ATCC 6539 assessed as diameter of inhibition zone at 0.5 mg/ml incubated for 24 hrs by agar diffusion method; type: functional, Salmonella enterica subsp. enterica serovar Typhimurium; details: Salmonella enterica, read-out: DIZ
[21] = tested on: Salmonella typhimurium; test: Antibacterial activity against Salmonella typhi ATCC 6539 assessed as reduction in bacterial growth incubated for 1 day by paper disk diffusion method; type: functional, Salmonella enterica subsp. enterica serovar Typhimurium; details: Salmonella enterica, ATCC 6539, 24 h
[22] = tested on: Escherichia coli; test: Antibacterial activity against Escherichia coli ATCC 25922 assessed as diameter of inhibition zone at 0.5 mg/ml incubated for 24 hrs by agar diffusion method; type: functional; details: read-out: DIZ
[23] = tested on: Staphylococcus aureus; test: Antibacterial activity against multidrug resistant Staphylococcus aureus ATCC 33591 assessed as reduction in bacterial growth incubated for 1 day by paper disk diffusion method; type: functional; details: ATCC 33591, 24 h
[24] = tested on: Neutrophil; test: Immunomodulatory activity in human neutrophils infected with bacteria assessed as increase in bacterial killing by measuring reduced NBT incubated for 30 mins by NBT dye based spectrophotometry; type: functional; parameters: concentration or dose not given beside the values; details: 0.5 h
[25] = tested on: Salmonella typhimurium; test: Bactericidal activity against Salmonella typhi ATCC 6539 incubated for 24 hrs followed by transferring to freshly prepared broth medium and measured after 24 hrs by broth microdilution assay; type: functional, Salmonella enterica subsp. enterica serovar […]; details: Salmonella enterica, time 48 hrs
[26] = tested on: Candida albicans; test: Fungicidal activity against Candida albicans ATCC 10231 incubated for 24 hrs followed by transferring to freshly prepared broth medium and measured after 24 hrs by broth microdilution assay; type: functional; details: time 48 hrs
[27] = tested on: Aspergillus brasiliensis; test: Antifungal activity against Aspergillus brasiliensis ATCC 16404 assessed as reduction in bacterial growth incubated for 3 days by paper disk diffusion method; type: functional; details: ATCC 16404, 72 h, time 3 day
[28] = molecular target: DNA gyrase (Staphylococcus aureus, UniProt P0A0K8+P20831); test: Inhibition of Staphylococcus aureus DNA gyrase using relaxed pBR322 DNA as substrate incubated for 45 mins by agarose gel electrophoresis method; type: protein-complex assay
[29] = tested on: Enterococcus faecalis; test: Bactericidal activity against Enterococcus faecalis ATCC 29212 incubated for 24 hrs followed by transferring to freshly prepared broth medium and measured after 24 hrs by broth microdilution assay; type: functional; details: time 48 hrs
[30] = tested on: Escherichia coli; test: Antibacterial activity against Escherichia coli ATCC 25922 assessed as reduction in bacterial growth incubated for 1 day by paper disk diffusion method; type: functional; details: ATCC 25922, 24 h
[31] = tested on: Staphylococcus aureus; test: Bactericidal activity against Staphylococcus aureus ATCC 33591 incubated for 24 hrs followed by transferring to freshly prepared broth medium and measured after 24 hrs by broth microdilution assay; type: functional; details: time 48 hrs
[32] = tested on: Staphylococcus aureus; test: Antibacterial activity against multidrug resistant Staphylococcus aureus ATCC 43300 assessed as reduction in bacterial growth incubated for 1 day by paper disk diffusion method; type: functional; details: ATCC 43300, 24 h

Sequence of DNA gyrase (P0A0K8 whole entry): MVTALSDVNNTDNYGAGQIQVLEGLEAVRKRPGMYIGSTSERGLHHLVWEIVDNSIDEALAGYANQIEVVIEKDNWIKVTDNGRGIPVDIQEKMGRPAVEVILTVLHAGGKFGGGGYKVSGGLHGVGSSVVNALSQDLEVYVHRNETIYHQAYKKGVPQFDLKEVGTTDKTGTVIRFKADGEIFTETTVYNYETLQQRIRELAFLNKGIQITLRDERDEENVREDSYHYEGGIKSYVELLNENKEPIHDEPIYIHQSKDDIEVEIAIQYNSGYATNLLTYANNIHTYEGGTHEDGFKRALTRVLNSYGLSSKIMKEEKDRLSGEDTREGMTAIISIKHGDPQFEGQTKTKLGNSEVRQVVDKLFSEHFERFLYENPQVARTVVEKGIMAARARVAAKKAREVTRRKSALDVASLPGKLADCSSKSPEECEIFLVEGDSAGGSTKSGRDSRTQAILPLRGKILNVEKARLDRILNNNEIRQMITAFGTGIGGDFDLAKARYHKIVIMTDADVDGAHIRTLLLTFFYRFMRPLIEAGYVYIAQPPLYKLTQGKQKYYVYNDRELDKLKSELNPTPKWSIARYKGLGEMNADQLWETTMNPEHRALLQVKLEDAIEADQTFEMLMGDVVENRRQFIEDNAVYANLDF
Sequence of DNA gyrase (P20831 whole entry): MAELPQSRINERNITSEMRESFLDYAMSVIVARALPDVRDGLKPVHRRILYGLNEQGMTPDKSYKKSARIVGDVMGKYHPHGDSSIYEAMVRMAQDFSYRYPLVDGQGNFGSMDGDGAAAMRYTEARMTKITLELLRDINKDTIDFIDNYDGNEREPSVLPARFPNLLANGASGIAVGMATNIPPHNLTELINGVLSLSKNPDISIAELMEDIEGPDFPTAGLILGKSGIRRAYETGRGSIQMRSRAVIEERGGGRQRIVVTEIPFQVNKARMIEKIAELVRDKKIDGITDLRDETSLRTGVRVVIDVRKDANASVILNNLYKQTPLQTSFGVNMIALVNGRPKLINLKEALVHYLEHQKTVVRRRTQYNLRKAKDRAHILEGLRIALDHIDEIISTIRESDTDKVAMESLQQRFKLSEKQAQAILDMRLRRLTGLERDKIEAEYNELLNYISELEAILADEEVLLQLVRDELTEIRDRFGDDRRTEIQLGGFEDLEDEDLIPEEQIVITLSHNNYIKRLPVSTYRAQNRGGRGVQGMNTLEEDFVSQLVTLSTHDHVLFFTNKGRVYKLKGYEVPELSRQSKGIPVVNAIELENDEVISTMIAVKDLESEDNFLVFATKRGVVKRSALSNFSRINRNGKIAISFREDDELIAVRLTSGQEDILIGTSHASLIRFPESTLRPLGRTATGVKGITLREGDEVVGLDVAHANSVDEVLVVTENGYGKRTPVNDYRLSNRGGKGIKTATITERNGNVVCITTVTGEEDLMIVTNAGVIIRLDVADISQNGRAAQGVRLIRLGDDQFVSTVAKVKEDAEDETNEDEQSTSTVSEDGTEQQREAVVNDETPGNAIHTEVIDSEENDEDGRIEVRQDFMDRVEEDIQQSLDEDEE

Compound | zone of inhibition at 500 µg/mL [1] [mm] | MIC [2] [mg/L] | MIC [3] [mg/L] | MIC [4] [mg/L] | zone of inhibition at 500 µg/mL [5] [mm] | zone of inhibition at 500 µg/mL [6] [mm] | zone of inhibition at 500 µg/mL [7] [mm] | zone of inhibition at 500 µg/mL [8] [mm] | MBC [9] [mg/L] | MBC [10] [mg/L] | MBC [11] [mg/L] | zone of inhibition at 500 µg/mL [12] [mm] | zone of inhibition at 500 µg/mL [13] [mm] | MBC [14] [mg/L] | zone of inhibition at 500 µg/mL [15] [mm] | MIC [16] [mg/L] | MBC [17] [mg/L] | MIC [18] [mg/L] | MFC [19] [mg/L] | zone of inhibition at 500 µg/mL [20] [mm] | further results
CC(=O)C1=C(C)OC(N)=C(C#N)C12C(=O)Nc1ccc(S(=O)(=O)N3CCOCC3)cc12 (centres undefined) | 20 | 17.8 (≈ 40 µM) | 7.81 (≈ 17.6 µM) | 8.88 (≈ 20 µM) | 22 | 14 | 21 | 20 | 23.4 (≈ 52.7 µM) | 12.5 (≈ 28.1 µM) | 12.5 (≈ 28.1 µM) | 18 | 22 | 17.8 (≈ 40 µM) | 21 | 71.1 (≈ 160 µM) | 85.3 (≈ 192 µM) | 6.25 (≈ 14.1 µM) | 150 (≈ 337 µM) | 19 | MIC [21]: 31.2 mg/L (≈ 70.3 µM); zone of inhibition at 500 µg/mL [22]: 21 mm; MIC [23]: 7.81 mg/L (≈ 17.6 µM); Activity [24]: 112.9%; MBC [25]: 50 mg/L (≈ 112 µM); MFC [26]: 15.6 mg/L (≈ 35.1 µM); MIC [27]: 125 mg/L (≈ 281 µM); IC50 [28]: 25.1 µM; MBC [29]: 26.6 mg/L (≈ 60 µM); MIC [30]: 15.6 mg/L (≈ 35.1 µM); MBC [31]: 9.37 mg/L (≈ 21.1 µM); MIC [32]: 7.81 mg/L (≈ 17.6 µM)
CC(=O)C1=C(c2ccccc2)OC(N)=C(C#N)C12C(=O)Nc1ccc(S(=O)(=O)N3CCOCC3)cc12 (centres undefined) | 26 | 12.5 (≈ 24.7 µM) | 15.6 (≈ 30.8 µM) | 4.44 (≈ 8.77 µM) | 24 | 20 | 23 | 26 | 21.2 (≈ 42 µM) | 5.85 (≈ 11.5 µM) | 145 (≈ 286 µM) | 22 | 23 | 6.66 (≈ 13.1 µM) | 25 | 17.8 (≈ 35.1 µM) | 23.1 (≈ 45.6 µM) | 6.25 (≈ 12.3 µM) | 108 (≈ 213 µM) | 22 | MIC [21]: 62.5 mg/L (≈ 123 µM); zone of inhibition at 500 µg/mL [22]: 23 mm; MIC [23]: 0.97 mg/L (≈ 1.91 µM); Activity [24]: 123.5%; MBC [25]: 81.2 mg/L (≈ 160 µM); MFC [26]: 31.2 mg/L (≈ 61.7 µM); MIC [27]: 71.8 mg/L (≈ 142 µM); IC50 [28]: 24.8 µM; MBC [29]: 20 mg/L (≈ 39.5 µM); MIC [30]: 12.5 mg/L (≈ 24.7 µM); MBC [31]: 1.94 mg/L (≈ 3.83 µM); MIC [32]: 0.97 mg/L (≈ 1.91 µM)
